Measured values published in patent US20150274719A1, “AMINO-SUBSTITUTED IMIDAZO[1,2-A]PYRIDINECARBOXAMIDES AND THEIR USE” (BAYER PHARMA AKTIENGESELLSCHAFT, priority 2012, published 2015).

molecular target: T1, recombinant guanylate cyclase reporter cell line (Rattus norvegicus, UniProt P19686+P20595); test: Action on recombinant guanylate cyclase reporter cell line; assay type: cell-based; conditions: in some cases mean values from individual determinations
T1 construct: expressed in transfected cells; host or cells: recombinant reporter cell line
T1 sequence (P19686 1-690): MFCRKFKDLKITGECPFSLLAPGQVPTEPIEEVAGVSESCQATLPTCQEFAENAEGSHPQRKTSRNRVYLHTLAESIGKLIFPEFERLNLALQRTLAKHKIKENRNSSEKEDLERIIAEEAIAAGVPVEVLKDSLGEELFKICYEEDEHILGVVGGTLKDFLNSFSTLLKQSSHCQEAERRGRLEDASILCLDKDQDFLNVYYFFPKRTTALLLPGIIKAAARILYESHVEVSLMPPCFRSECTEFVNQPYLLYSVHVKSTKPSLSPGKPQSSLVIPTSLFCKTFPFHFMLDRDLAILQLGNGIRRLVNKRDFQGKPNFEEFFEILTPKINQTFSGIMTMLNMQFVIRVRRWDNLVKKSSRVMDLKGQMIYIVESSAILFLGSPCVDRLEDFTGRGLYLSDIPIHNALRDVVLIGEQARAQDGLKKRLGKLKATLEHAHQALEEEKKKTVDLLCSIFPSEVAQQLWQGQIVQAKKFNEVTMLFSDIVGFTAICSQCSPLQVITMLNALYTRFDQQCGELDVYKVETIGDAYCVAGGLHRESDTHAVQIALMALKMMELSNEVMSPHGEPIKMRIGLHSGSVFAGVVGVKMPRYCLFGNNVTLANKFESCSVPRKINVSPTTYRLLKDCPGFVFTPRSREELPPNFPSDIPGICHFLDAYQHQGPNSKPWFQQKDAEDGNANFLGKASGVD
T1 sequence (P20595 1-619): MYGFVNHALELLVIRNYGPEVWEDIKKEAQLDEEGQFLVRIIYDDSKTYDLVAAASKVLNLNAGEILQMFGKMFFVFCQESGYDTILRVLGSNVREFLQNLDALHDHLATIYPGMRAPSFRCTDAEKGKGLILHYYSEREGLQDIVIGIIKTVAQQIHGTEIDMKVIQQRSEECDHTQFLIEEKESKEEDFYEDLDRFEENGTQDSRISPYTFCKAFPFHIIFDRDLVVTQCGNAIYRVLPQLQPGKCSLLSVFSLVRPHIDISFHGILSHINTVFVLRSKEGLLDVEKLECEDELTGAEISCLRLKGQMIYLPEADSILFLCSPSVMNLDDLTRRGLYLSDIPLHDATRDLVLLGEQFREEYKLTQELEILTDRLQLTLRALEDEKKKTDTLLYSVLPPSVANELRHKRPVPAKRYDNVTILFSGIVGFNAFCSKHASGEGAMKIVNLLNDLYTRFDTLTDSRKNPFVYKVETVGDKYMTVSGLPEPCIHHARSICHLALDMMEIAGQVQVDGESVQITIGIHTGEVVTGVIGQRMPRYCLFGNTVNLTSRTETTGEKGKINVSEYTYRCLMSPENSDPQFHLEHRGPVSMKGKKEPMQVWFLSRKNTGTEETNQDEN
Method in brief: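 Compounds are tested on whole cells carrying a guanylate cyclase reporter construct. The lowest concentration giving an effect is recorded as the MEC.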

SMILES	MEC (minimal effective concentration) [µM]
COc1cccc(C(CN)NC(=O)c2c(C)nc3c(OCc4c(F)cccc4F)cc(C)cn23)c1 (racemic) [Example 382, rac-N-[2-amino-1-(3-methoxyphenyl)ethyl]-8-[(2,6-difluorobenzyl)oxy]-2,6-dimethylimidazo[1,2-a]pyridine-3-carboxamide]	0.30
Cc1cc(OCc2c(F)cccc2F)c2nc(C)c(C(=O)NC(CN)c3cccc(Br)c3)n2c1 (racemic) [Example 383, rac-N-[2-amino-1-(3-bromophenyl)ethyl]-8-[(2,6-difluorobenzyl)oxy]-2,6-dimethylimidazo[1,2-a]pyridine-3-carboxamide]	0.30
Cc1cc(OCc2c(F)cccc2F)c2nc(C)c(C(=O)NC(CN)c3ccc([N+](=O)[O-])cc3)n2c1 (racemic) [Example 384, rac-N-[2-amino-1-(4-nitrophenyl)ethyl]-8-[(2,6-difluorobenzyl)oxy]-2,6-dimethylimidazo[1,2-a]pyridine-3-carboxamide]	0.30
C=Cc1cccc(C(CN)NC(=O)c2c(C)nc3c(OCc4c(F)cccc4F)cc(C)cn23)c1 (racemic) [Example 385, rac-N-[2-amino-1-(3-ethenylphenyl)ethyl]-8-[(2,6-difluorobenzyl)oxy]-2,6-dimethylimidazo[1,2-a]pyridine-3-carboxamide]	1.00
COc1ccc(CC(C)(CN)NC(=O)c2c(C)nc3c(OCc4c(F)cccc4F)cc(C)cn23)cc1 (racemic) [Example 386, rac-N-[1-amino-3-(4-methoxyphenyl)-2-methylpropan-2-yl]-8-[(2,6-difluorobenzyl)oxy]-2,6-dimethylimidazo[1,2-a]pyridine-3-carboxamide]	0.65
Cc1cc(OCc2c(F)cccc2F)c2nc(C)c(C(=O)NC(CN)c3cnn(C)c3)n2c1 (racemic) [Example 387, rac-N-[2-amino-1-(1-methyl-1H-pyrazol-4-yl)ethyl]-8-[(2,6-difluorobenzyl)oxy]-2,6-dimethylimidazo[1,2-a]pyridine-3-carboxamide]	10.0
Cc1cc(OCc2c(F)cccc2F)c2nc(C)c(C(=O)NC(CN)c3ccc4c(c3)OCCO4)n2c1 (racemic) [Example 388, rac-N-[2-amino-1-(2,3-dihydro-1,4-benzodioxin-6-yl)ethyl]-8-[(2,6-difluorobenzyl)oxy]-2,6-dimethylimidazo[1,2-a]pyridine-3-carboxamide]	0.30
Cc1cc(OCc2c(F)cccc2F)c2nc(C)c(C(=O)NC(CN)c3csc4ccccc34)n2c1 (racemic) [Example 389, rac-N-[2-amino-1-(1-benzothiophen-3-yl)ethyl]-8-[(2,6-difluorobenzyl)oxy]-2,6-dimethylimidazo[1,2-a]pyridine-3-carboxamide]	1.00
Cc1cc(OCc2c(F)cccc2F)c2nc(C)c(C(=O)NC(CN)c3cc(F)c(F)c(F)c3)n2c1 (racemic) [Example 390, rac-N-[2-amino-1-(3,4,5-trifluorophenyl)ethyl]-8-[(2,6-difluorobenzyl)oxy]-2,6-dimethylimidazo[1,2-a]pyridine-3-carboxamide]	0.30
CSCCC(CN)NC(=O)c1c(C)nc2c(OCc3c(F)cccc3F)cc(C)cn12 (racemic) [Example 391, rac-N-[1-amino-4-(methylsulfanyl)butan-2-yl]-8-[(2,6-difluorobenzyl)oxy]-2,6-dimethylimidazo[1,2-a]pyridine-3-carboxamide]	0.10
Cc1cc(OCc2c(F)cccc2F)c2nc(C)c(C(=O)NC(CN)c3cccc(OC(F)F)c3)n2c1 (racemic) [Example 392, rac-N-{2-amino-1-[3-(difluoromethoxy)phenyl]ethyl}-8-[(2,6-difluorobenzyl)oxy]-2,6-dimethylimidazo[1,2-a]pyridine-3-carboxamide]	1.00
Cc1cc(OCc2c(F)cccc2F)c2nc(C)c(C(=O)NC(CN)c3cccc(OCCO)c3)n2c1 (racemic) [Example 393, rac-N-{2-amino-1-[3-(2-hydroxyethoxy)phenyl]ethyl}-8-[(2,6-difluorobenzyl)oxy]-2,6-dimethylimidazo[1,2-a]pyridine-3-carboxamide]	1.00
Cc1cc(OCc2c(F)cccc2F)c2nc(C)c(C(=O)NC(CN)c3cccc(C(F)(F)F)c3)n2c1 (racemic) [Example 394, rac-N-{2-amino-1-[3-(trifluoromethyl)phenyl]ethyl}-8-[(2,6-difluorobenzyl)oxy]-2,6-dimethylimidazo[1,2-a]pyridine-3-carboxamide]	0.30
Cc1cc(OCc2c(F)cccc2F)c2nc(C)c(C(=O)NC(CN)c3ccc4ncccc4c3)n2c1 (racemic) [Example 395, rac-N-[2-amino-1-(quinolin-6-yl)ethyl]-8-[(2,6-difluorobenzyl)oxy]-2,6-dimethylimidazo[1,2-a]pyridine-3-carboxamide]	1.00
CC(=O)Nc1cccc(C(CN)NC(=O)c2c(C)nc3c(OCc4c(F)cccc4F)cc(C)cn23)c1 (racemic) [Example 396, rac-N-[1-(3-acetamidophenyl)-2-aminoethyl]-8-[(2,6-difluorobenzyl)oxy]-2,6-dimethylimidazo[1,2-a]pyridine-3-carboxamide]	3.00
COC(=O)c1cccc(C(N)CNC(=O)c2c(C)nc3c(OCc4c(F)cccc4F)cc(C)cn23)c1 (racemic) [Example 399, rac-Methyl 3-{1-amino-2-[({8-[(2,6-difluorobenzyl)oxy]-2,6-dimethylimidazo[1,2-a]pyridin-3-yl}carbonyl)amino]ethyl}benzoate]	1.00
Cc1cc(OCc2c(F)cccc2F)c2nc(C)c(C(=O)NCC(N)C#N)n2c1 (racemic) [Example 400, rac-N-(2-amino-2-cyanoethyl)-8-[(2,6-difluorobenzyl)oxy]-2,6-dimethylimidazo[1,2-a]pyridine-3-carboxamide]	0.65
CC=CCC(N)CNC(=O)c1c(C)nc2c(OCc3c(F)cccc3F)cc(C)cn12 (racemic) [Example 406, rac-N-[(4E/Z)-2-aminohex-4-en-1-yl]-8-[(2,6-difluorobenzyl)oxy]-2,6-dimethylimidazo[1,2-a]pyridine-3-carboxamide]	0.10
CSCCC(N)CNC(=O)c1c(C)nc2c(OCc3c(F)cccc3F)cc(C)cn12 (racemic) [Example 412, rac-N-[2-amino-4-(methylsulfanyl)butyl]-8-[(2,6-difluorobenzyl)oxy]-2,6-dimethylimidazo[1,2-a]pyridine-3-carboxamide]	0.10
Cc1cc(OCc2c(F)cccc2F)c2nc(C)c(C(=O)NCC(N)CCS(C)(=O)=O)n2c1 (racemic) [Example 413, rac-N-[2-amino-4-(methylsulfonyl)butyl]-8-[(2,6-difluorobenzyl)oxy]-2,6-dimethylimidazo[1,2-a]pyridine-3-carboxamide]	5.5
Cc1cc(OCc2c(F)cccc2F)c2nc(C)c(C(=O)NCC3CS(=O)(=O)CCN3)n2c1 (racemic) [Example 414, rac-8-[(2,6-difluorobenzyl)oxy]-N-[(1,1-dioxidothiomorpholin-3-yl)methyl]-2,6-dimethylimidazo[1,2-a]pyridine-3-carboxamide]	0.30
Cc1cc(OCc2c(F)cccc2F)c2nc(C)c(C(=O)NCC(N)c3csc(C)n3)n2c1 (racemic) [Example 415, rac-N-[2-amino-2-(2-methyl-1,3-thiazol-4-yl)ethyl]-8-[(2,6-difluorobenzyl)oxy]-2,6-dimethylimidazo[1,2-a]pyridine-3-carboxamide triformate]	5.5
